Assay results as given in patent US20230293517A1, “ANTAGONIST COMPOUNDS” (AdoRx Therapeutics Limited, priority 2020, published 2023).
Like-named read-outs stand apart in the source and are kept apart here.

Experiments:
[1] = target: human Adenosine A2a receptor (Homo sapiens (Human), UniProt P29274); assay: Adenosine receptor TR-FRET binding assay (A2a); settings: inhibition of binding of 100 nM CA200645, CHO cell membranes
Method in brief: (§1)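 Compounds were serially diluted 1:3 in DMSO, then incubated with CHO membranes bearing Tb-tagged human receptor plus CA200645 (A2b 30 nM; A1, A2a, A3 100 nM) for 2 h at room temperature. Time-resolved FRET was read, non-specific binding subtracted using 10 μM XAC, and Ki calculated.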

[2] = target: human Adenosine A2b receptor (Homo sapiens (Human), UniProt P29275); assay: Adenosine receptor TR-FRET binding assay (A2b)
Method in brief: as §1

[3] = test system: CD8+T cells in human whole blood; assay: Measurement of pCREB in CD8+T cells in human whole blood; assay type: cell-based; settings: 3 μM NECA, rolipram
Method in brief: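 Heparinised human whole blood pre-incubated 20 min at 37 °C with serially diluted A2a antagonists plus rolipram, then stimulated 60 min with 3 μM NECA (final). After fixation and red-cell lysis, white cells were permeabilized and stained for phospho-CREB and CD8; pCREB in CD8+ T cells measured by flow cytometry.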

[4] = target: human Adenosine A3 receptor (Homo sapiens (Human), UniProt P0DMS8); assay: Adenosine receptor TR-FRET binding assay (A3); settings: inhibition of binding of 100 nM CA200645, CHO cell membranes
Method in brief: as §1

[5] = test system: immature monocyte-derived dendritic cells (MoDC); assay: MoDC pCREB assay; assay type: cell-based, human; settings: pCREB in immature MoDC, 1 μM NECA, rolipram
Method: Monocytes are isolated from human whole blood using CD14 microbeads (Miltenyi Biotec 130-050-201) and differentiated to immature monocyte-derived dendritic cells (MoDC) by culture for 5 days in Mo-DC Differentiation Medium (Miltenyi Biotec 130-094-812). MoDCs are seeded into fresh medium into U bottomed 96 well culture plates and pre-incubated at 37° C. with serial dilutions of A2A/B antagonists for 15 min. At the same time the cells are co-incubated with the phosphodiesterase inhibitor rolipram (final concentration of 20 µM) to amplify the subsequent pCREB response. Adenosine receptor agonist NECA is then added at 1 μM final concentration, leading to an increase in CREB phosphorylation. Following a 45 min incubation at 37° C., the cells are fixed, permeabilized and stained with directly conjugated fluorescent antibodies to phospho-CREB (Alexa Fluor 488), CD209 (PerCP-Cy5.5) and CD86 (APC). Samples are analysed by FACS to measure fluorescence in corresponding channels, and also forward and Side scatter. The population of CD209+/CD86− low cells corresponding to immature dendritic cells is gated for analysis of pCREB levels.
Approximately 5% of the analysed cells are positive for detection of pCREB in the absence of agonist stimulation, representing the background signalling of all pathways upstream of CREB. Following NECA stimulation this is increased to ˜80% pCREB+ve, and this increase is essentially fully reversible by A2B or dual A2A/B antagonists.
IC50 is represented as the point of inflection of a sigmoidal curve

[6] = target: human Adenosine A1 receptor (Homo sapiens (Human), UniProt P30542); assay: Adenosine receptor TR-FRET binding assay (A1); settings: inhibition of binding of 100 nM CA200645, CHO cell membranes
Method in brief: as §1

[7] = TR-FRET, inhibition of binding of 30 nM CA200645, CHO cell membranes

human Adenosine A2a receptor, sequence (P29274 whole entry): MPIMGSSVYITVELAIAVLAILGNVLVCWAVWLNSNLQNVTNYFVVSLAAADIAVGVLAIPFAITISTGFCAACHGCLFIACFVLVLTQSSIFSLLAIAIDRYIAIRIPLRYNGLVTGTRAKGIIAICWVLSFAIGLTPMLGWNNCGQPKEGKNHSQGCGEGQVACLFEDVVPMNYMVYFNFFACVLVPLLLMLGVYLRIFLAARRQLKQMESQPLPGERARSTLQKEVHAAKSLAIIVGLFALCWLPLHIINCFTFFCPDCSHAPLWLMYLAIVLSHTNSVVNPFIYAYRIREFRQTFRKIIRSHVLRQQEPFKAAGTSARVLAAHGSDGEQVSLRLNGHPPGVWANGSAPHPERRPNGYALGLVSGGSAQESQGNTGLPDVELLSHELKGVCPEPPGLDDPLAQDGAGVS
human Adenosine A1 receptor, sequence (P30542 whole entry): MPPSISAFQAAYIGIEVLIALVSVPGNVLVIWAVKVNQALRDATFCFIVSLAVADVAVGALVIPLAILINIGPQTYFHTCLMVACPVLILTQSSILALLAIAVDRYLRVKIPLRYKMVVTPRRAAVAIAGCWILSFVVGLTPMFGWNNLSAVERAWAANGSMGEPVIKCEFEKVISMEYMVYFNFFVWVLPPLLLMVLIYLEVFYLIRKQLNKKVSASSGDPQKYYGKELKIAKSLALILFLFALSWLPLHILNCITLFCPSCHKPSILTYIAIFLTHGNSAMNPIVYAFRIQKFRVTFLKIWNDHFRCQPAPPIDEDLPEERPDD
human Adenosine A3 receptor, sequence (P0DMS8 whole entry): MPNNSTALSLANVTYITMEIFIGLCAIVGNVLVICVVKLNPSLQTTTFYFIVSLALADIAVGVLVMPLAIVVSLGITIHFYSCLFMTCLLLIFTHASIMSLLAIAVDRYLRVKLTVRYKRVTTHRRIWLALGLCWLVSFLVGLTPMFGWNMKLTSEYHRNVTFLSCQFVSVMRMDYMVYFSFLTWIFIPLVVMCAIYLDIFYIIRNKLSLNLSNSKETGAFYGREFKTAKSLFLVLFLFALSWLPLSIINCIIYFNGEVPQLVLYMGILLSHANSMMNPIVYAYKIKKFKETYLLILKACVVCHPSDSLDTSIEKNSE
human Adenosine A2b receptor, sequence (P29275 whole entry): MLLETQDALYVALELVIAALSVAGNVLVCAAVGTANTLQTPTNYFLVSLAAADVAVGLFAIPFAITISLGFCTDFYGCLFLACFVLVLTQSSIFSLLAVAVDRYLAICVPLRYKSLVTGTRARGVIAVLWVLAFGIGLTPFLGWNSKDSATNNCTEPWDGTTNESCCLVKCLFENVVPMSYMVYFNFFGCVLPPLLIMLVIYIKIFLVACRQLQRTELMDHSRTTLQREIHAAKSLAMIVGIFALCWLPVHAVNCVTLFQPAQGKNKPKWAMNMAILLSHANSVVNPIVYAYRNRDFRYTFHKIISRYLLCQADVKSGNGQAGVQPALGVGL

Row | Compound | Ki [1] [nM] | Ki [2, 7] [nM] | IC50 [3] [nM] | Ki [4] [nM] | IC50 ([5]; Homo sapiens, Dendritic cell) [nM] | Ki [6] [nM] | IC50 [5] [nM] | Ki [2] [nM]
1 | N#Cc1cccc(-c2nc(NC(=O)N3CC4(COC4)C3)sc2-c2cc(CO)nc(C(F)(F)F)c2)c1 [Example 26, N-[4-(3-Cyanophenyl)-5-[2-(hydroxymethyl)-6-(trifluoromethyl)-4-pyridyl]thiazol-2-yl]-2-oxa-6-azaspiro[3.3]heptane-6-carboxamide] | 0.24 | 1.2 | 50 | 456 | 17 | 38 | – | –
2 | Cc1cc(-c2sc(NC(=O)N3CC4(COC4)C3)nc2-c2cccc(C#N)c2)cc([C@@H](C)O)n1 (single isomer, unassigned) [Example 12.3a, N-[4-(3-Cyanophenyl)-5-[2-[(1R)-1-hydroxyethyl]-6-methyl-4-pyridyl]thiazol-2-yl]-2-oxa-6-azaspiro[3.3]heptane-6-carboxamide or N-[4-(3-cyanophenyl)-5-[2-[(1S)-1-hydroxyethyl]-6-methyl-4-pyridyl]thiazol-2-yl]-2-oxa-6-azaspiro[3.3]heptane-6-carboxamide] | 0.18 | 2.6 | 10 | 1090 | – | 23 | 16 | –
3 | Cc1cc(-c2sc(NC(=O)N3CCC4(CNCCO4)C3)nc2-c2cccc(C#N)c2)cc(C)n1 (centres unmarked) [Example 13.12, N-[4-(3-Cyanophenyl)-5-(2,6-dimethyl-4-pyridyl)thiazol-2-yl]-6-oxa-2,9-diazaspiro[4.5]decane-2-carboxamide] | 0.84 | 4.6 | 70 | 426 | 73 | 41 | – | –
4 | [2H]C([2H])([2H])c1cc(-c2sc(NC(=O)N3CC4(COC4)C3)nc2-c2cccc(C#N)c2)cc(C([2H])([2H])[2H])n1 [Example 6.104, N-[5-[2,6-Bis(trideuteriomethyl)-4-pyridyl]-4-(3-cyanophenyl)thiazol-2-yl]-2-oxa-6-azaspiro[3.3]heptane-6-carboxamide] | 0.2 | 1 | – | 564 | 12 | 31 | – | –
5 | Cc1cc(-c2sc(NC(=O)N3CCC4(CNCCO4)C3)nc2-c2cccc(C#N)c2)cc(C(F)F)n1 (centres unmarked) [Example 6.108, N-[4-(3-Cyanophenyl)-5-[2-(difluoromethyl)-6-methyl-4-pyridyl]thiazol-2-yl]-6-oxa-2,9-diazaspiro[4.5]decane-2-carboxamide] | 0.59 | 0.9 | – | 145 | 62 | 34 | – | –
6 | Cc1cc(-c2sc(NC(=O)N3CC4(COC4)C3)nc2-c2cccc(C#N)c2)cc(C(C)O)n1 (racemic) [Example 12.3, N-[4-(3-Cyanophenyl)-5-[2-(1-hydroxyethyl)-6-methyl-4-pyridyl]thiazol-2-yl]-2-oxa-6-azaspiro[3.3]heptane-6-carboxamide] | 0.44 | 5 | 20 | 1810 | 31 | 27 | – | –
7 | Cc1cc(-c2sc(NC(=O)N3CC4(COC4)C3)nc2-c2cccc(C#N)c2)c(F)c(C)n1 [Example 6.105, N-[4-(3-Cyanophenyl)-5-(3-fluoro-2,6-dimethyl-4-pyridyl)thiazol-2-yl]-2-oxa-6-azaspiro[3.3]heptane-6-carboxamide] | 1.27 | 1.3 | – | 368 | 4 | 71 | – | –
8 | Cc1cc(-c2sc(NC(=O)N3C[C@@H]4OCCN(C)[C@@H]4C3)nc2-c2cccc(C#N)c2)cc(C)n1 (racemic) [Example 6.98, rac-(4aR,7aS)-N-[4-(3-Cyanophenyl)-5-(2,6-dimethyl-4-pyridyl)thiazol-2-yl]-4-methyl-2,3,4a,5,7,7a-hexahydropyrrolo[3,4-b][1,4]oxazine-6-carboxamide] | 0.91 | – | 50 | 819 | 72 | – | – | 7
